The assay concerns C2C12 cells. Nature of the assay: Western blot of UPRmt, prohibitins and cell cycle proteins in TAP-treated C2C12 cells. Format: cell-based, mouse. The conditions noted are these: 50 μg/ml TAP, FIG. 7. The protocol: Western blotting. C2C12 cells were lysed in a buffer composed of 50 mM Tris, 150 mM KCl, EDTA 1 mM, NP40 1%, nicotinamide 5 mM, sodium butyrate 1 mM and protease inhibitors cocktail (Roche) at pH 7,4. Proteins were separated by SDS-PAGE and transferred onto nitrocellulose membranes. Blocking and antibody incubations were performed in 3% BSA. The following primary antibodies were used: anti-cleavage caspase 3 (Cell Signalling); Anti-γH2AX (Millipore); anti-β-actin (Sigma). All secondary antibodies were from Jackson Immunoresearch. Antibody detection reactions were developed by enhanced chemiluminescence (Advansta, Calif., USA) using x-ray films or imaged using the c300 imaging system (Azure Biosystems). The following primary antibodies were used: anti-HSP60 (Enzo Life Science); anti-PHB (Biolegend); anti-PHB2 (Santa Cruz); anti-CKD4 (Novus biologicals); anti-CCND1 (Santa Cruz); anti-CCND3 (Santa Cruz); anti-HSP90 (BD Biosciences); HSP70 (Abcam); anti-MT-CO1 (Bio legend); anti-ATP5A (Bio legend); anti-Grp78 (Abcam); and anti-CLPP (Sigma).
For orientation: A western blot detects proteins with antibodies after separation by electrophoresis.

Regarding `CS(=O)(=O)c1ccc([C@@H](O)[C@@H](CO)NC(=O)C(Cl)Cl)cc1` [thiamphenicol], the UPRmt induction entry is “UPR^mt induction”, the “cell cycle gene expression” value is reported as “induced” and the prohibitins expression entry was “induced”.

Source of the values: patent publication US10905704B2, “Agents and methods using thereof for the prevention and treatment of stem cell muscle disorders” (ECOLE POLYTECHNIQUE FEDERALE DE LAUSANNE (EPFL), priority 2015, dated 2021).
